Source: patent US10689377B2 (Mirati Therapeutics, Inc., priority 2017, dated 2020)

Target: KRas G12C (Homo sapiens, UniProt P01116, G12C)
Assay: Cellular inhibition of KRas G12C measured by Phospho-ERK in NCI-H358 cells
Assay type: cell-based
Conditions: pERK(Thr202/Tyr204) normalized with GAPDH, NCI-H358 cells, 3 hours; read-out: IC50
Summary of the method: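 NCI-H358 cells treated 3 h with compound (0.5% DMSO final), then fixed and methanol-permeabilised. In-cell immunofluorescence measured pERK(Thr202/Tyr204) normalised to GAPDH as percent of DMSO control. IC50 from a 4-parameter dose-response fit.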

Chain of KRas G12C (P01116 1-188 isoform P01116-2 G12C): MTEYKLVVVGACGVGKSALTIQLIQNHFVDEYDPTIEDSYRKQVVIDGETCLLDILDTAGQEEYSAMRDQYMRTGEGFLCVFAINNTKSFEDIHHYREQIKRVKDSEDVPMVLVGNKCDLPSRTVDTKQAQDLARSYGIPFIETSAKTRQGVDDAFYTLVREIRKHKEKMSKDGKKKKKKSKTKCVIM

| SMILES | IC50 [µM] |
| --- | --- |
| Cc1cccc2cccc(N3CCc4c(nc(OC[C@@H]5CCCN5C)nc4N4CCN(C(=O)/C=C/CN(C)C)[C@@H](CC#N)C4)C3)c12 [Example 459, 2-((S)-1-((E)-4-(dimethylamino)but-2-enoyl)-4-(7-(8-methylnaphthalen-1-yl)-2-(((S)-1-methylpyrrolidin-2-yl)methoxy)-5,6,7,8-tetrahydropyrido[3,4-d]pyrimidin-4-yl)piperazin-2-yl)acetonitrile] | 0.0001 to 1 |
| C=CC(=O)N1CCN(c2nc(OC[C@@H]3CCCN3C)nc3c2CCN(c2cccc(C)c2C(F)(F)F)C3)C[C@@H]1CC#N [Example 364, 2-[(2S)-4-[2-[[(2S)-1-methylpyrrolidin-2-yl]methoxy]-7-[3-methyl-2-(trifluoromethyl)phenyl]-6,8-dihydro-5H-pyrido[3,4-d]pyrimidin-4-yl]-1-prop-2-enoyl-piperazin-2-yl]acetonitrile] | 0.0001 to 1 |
| C/C=C/C(=O)N1CCN(c2nc(OC[C@@H]3CCCN3C)nc3c2CCN(c2cccc4ccccc24)C3)CC1CC#N (stereo partly drawn) [Example 293, 2-[1-[(E)-but-2-enoyl]-4-[2-[[(2S)-1-methylpyrrolidin-2-yl]methoxy]-7-(1-naphthyl)-6,8-dihydro-5H-pyrido[3,4-d]pyrimidin-4-yl]piperazin-2-yl]acetonitrile] | 0.0001 to 1 |
| Cc1cccc(N2CCc3c(nc(OC[C@@H]4CCCN4C)nc3N3CCN(C(=O)/C=C\Cl)[C@@H](CC#N)C3)C2)c1C [Example 505, 2-((S)-1-((Z)-3-chloroacryloyl)-4-(7-(2,3-dimethylphenyl)-2-(((S)-1-methylpyrrolidin-2-yl)methoxy)-5,6,7,8-tetrahydropyrido[3,4-d]pyrimidin-4-yl)piperazin-2-yl)acetonitrile] | > 1 |
| C=C(F)C(=O)N1CCN(c2nc(OC[C@@H]3C[C@@H](F)CN3C)nc3c2CCN(c2c(C)c(C)cc4[nH]ncc24)C3)C[C@@H]1CC#N [Example 606, 2-((S)-4-(7-(5,6-dimethyl-1H-indazol-4-yl)-2-(((2S,4R)-4-fluoro-1-methylpyrrolidin-2-yl)methoxy)-5,6,7,8-tetrahydropyrido[3,4-d]pyrimidin-4-yl)-1-(2-fluoroacryloyl)piperazin-2-yl)acetonitrile] | 0.0001 to 1 |
| C=CC(=O)N1CCN(c2nc(OC[C@@H]3CCCN3C)nc3c2CCN(c2cccc(F)c2C)C3)C[C@@H]1CC#N [Example 388, 2-((S)-1-acryloyl-4-(7-(3-fluoro-2-methylphenyl)-2-(((S)-1-methylpyrrolidin-2-yl)methoxy)-5,6,7,8-tetrahydropyrido[3,4-d]pyrimidin-4-yl)piperazin-2-yl)acetonitrile] | 0.0001 to 1 |
| C=CC(=O)N1CCN(c2nc(OC[C@@H]3CCN(C)C3)nc3c2CCN(c2c(C(F)(F)F)ccc4[nH]ncc24)C3)CC1CC#N (stereo partly drawn) [Example 313, 2-[4-[2-[[(3R)-1-methylpyrrolidin-3-yl]methoxy]-7-[5-(trifluoromethyl)-1H-indazol-4-yl]-6,8-dihydro-5H-pyrido[3,4-d]pyrimidin-4-yl]-1-prop-2-enoyl-piperazin-2-yl]acetonitrile] | 0.0001 to 1 |
| C=C(F)C(=O)N1CCN(c2nc(OC[C@@H]3CC(C)(C)CN3C)nc3c2CCN(c2cccc4cccc(C)c24)C3)C[C@@H]1CC#N [Example 615, 2-[(2S)-1-(2-fluoroprop-2-enoyl)-4-[7-(8-methyl-1-naphthyl)-2-[[(2S)-1,4,4-trimethylpyrrolidin-2-yl]methoxy]-6,8-dihydro-5H-pyrido[3,4-d]pyrimidin-4-yl]piperazin-2-yl]acetonitrile] | 0.0001 to 1 |
| C=C(F)C(=O)N1CCN(c2nc(OC[C@@H]3CCCN3C)nc3c2CCN(c2cncc4cc(F)ccc24)C3)C[C@@H]1CC#N [Example 618, 2-[(2S)-4-[7-(7-fluoro-4-isoquinolyl)-2-[[(2S)-1-methylpyrrolidin-2-yl]methoxy]-6,8-dihydro-5H-pyrido[3,4-d]pyrimidin-4-yl]-1-(2-fluoroprop-2-enoyl)piperazin-2-yl]acetonitrile] | > 1 |

Further lines, results first:

| IC50 [µM] | SMILES |
| --- | --- |
| > 1 | C=CC(=O)N1CCN(c2nc(OCCN3CC(F)(F)C3)nc3c2CCN(c2cc(O)cc4ccccc24)C3)CC1 [Example 138, 1-[4-[2-[2-(3,3-difluoroazetidin-1-yl)ethoxy]-7-(3-hydroxy-1-naphthyl)-6,8-dihydro-5H-pyrido[3,4-d]pyrimidin-4-yl]piperazin-1-yl]prop-2-en-1-one] |
| 0.0001 to 1 | C=CC(=O)N1CCN(c2nc(OC[C@@H]3C[C@@H](F)CN3C)nc3c2CCN(c2cc(O)cc4ccccc24)C3)CC1 [Example 357, 1-[4-[2-[[(2S,4R)-4-fluoro-1-methyl-pyrrolidin-2-yl]methoxy]-7-(3-hydroxy-1-naphthyl)-6,8-dihydro-5H-pyrido[3,4-d]pyrimidin-4-yl]piperazin-1-yl]prop-2-en-1-one] |
| 0.0001 to 1 | C=CC(=O)N1CCN(c2nc(OCCN3C[C@@H]4CC[C@H]3C4)nc3c2CCN(c2cc(O)cc4ccccc24)C3)CC1 [Example 77, 1-(4-(2-(2-((1S,4R)-2-azabicyclo[2.2.1]heptan-2-yl)ethoxy)-7-(3-hydroxynaphthalen-1-yl)-5,6,7,8-tetrahydropyrido[3,4-d]pyrimidin-4-yl)piperazin-1-yl)prop-2-en-1-one] |
| 0.0001 to 1 | C=CC(=O)N1CCN(c2nc(OC[C@@H]3C[C@@H](OC)CN3C)nc3c2CCN(c2cccc4ccccc24)C3)CC1CC#N (stereo partly drawn) [Example 381, 2-(1-acryloyl-4-(2-(((2S,4R)-4-methoxy-1-methylpyrrolidin-2-yl)methoxy)-7-(naphthalen-1-yl)-5,6,7,8-tetrahydropyrido[3,4-d]pyrimidin-4-yl)piperazin-2-yl)acetonitrile] |
| 0.0001 to 1 | C=CC(=O)N1CCN(c2nc(OC[C@H]3CCCN3C)nc3c2CCN(c2cc(O)cc4ccccc24)C3)CC1CC#N (stereo partly drawn) [Example 178, 2-[4-[7-(3-hydroxy-1-naphthyl)-2-[[(2R)-1-methylpyrrolidin-2-yl]methoxy]-6,8-dihydro-5H-pyrido[3,4-d]pyrimidin-4-yl]-1-prop-2-enoyl-piperazin-2-yl]acetonitrile] |
| > 1 | C=CC(=O)N1CCN(c2nc(OC[C@H](O)CN3CCOCC3)nc3c2CCN(c2cc(O)cc4ccccc24)C3)CC1 (single isomer, unassigned) [Example 215] |
| > 1 | C=CC(=O)N1CCN(c2nc(OCCN3CCC[C@@H](OC)C3)nc3c2CCN(c2cc(O)cc4ccccc24)C3)CC1 [Example 99, (R)-1-(4-(7-(3-hydroxynaphthalen-1-yl)-2-(2-(3-methoxypiperidin-1-yl)ethoxy)-5,6,7,8-tetrahydropyrido[3,4-d]pyrimidin-4-yl)piperazin-1-yl)prop-2-en-1-one] |
| 0.0001 to 1 | C=CC(=O)N1CCN(c2nc(OCCCN3CCCOCC3)nc3c2CCN(c2cc(O)cc4ccccc24)C3)CC1 [Example 101, 1-(4-(2-(3-(1,4-oxazepan-4-yl)propoxy)-7-(3-hydroxynaphthalen-1-yl)-5,6,7,8-tetrahydropyrido[3,4-d]pyrimidin-4-yl)piperazin-1-yl)prop-2-en-1-one] |
| > 1 | C=CC(=O)N1CCN(c2nc(OC[C@H]3CCC(C)(C)N3)nc3c2CCN(c2cc(O)cc4ccccc24)C3)CC1 [Example 174, (R)-1-(4-(2-((5,5-dimethylpyrrolidin-2-yl)methoxy)-7-(3-hydroxynaphthalen-1-yl)-5,6,7,8-tetrahydropyrido[3,4-d]pyrimidin-4-yl)piperazin-1-yl)prop-2-en-1-one] |
| > 1 | C=CC(=O)N1CCN(c2nc(OCCN(C)C)nc3c2CCN(c2cc(O)cc4ccccc24)C3)C[C@@H]1C [Example 14] |
